Laboratory results reported in PMC11013143, “4-Chloroisocoumarins as Chlamydial Protease Inhibitors and Anti-Chlamydial Agents” (Molecules, 2024).

Experiments:
CtHtrA = target: T1, CtHtrA (Chlamydia trachomatis serovar D, UniProt P18584); experiment: CtHtrA protease inhibition assay; format: biochemical; conditions: for Relative Potency against CtHtrA: [IC50 of control]/[IC50 test compound]; for IC50: IC50 against CtHtrA; for Relative Selectivity: (relative CtHtrA potency)/(relative HLE potency)
T1 construct: made in house; host or cells: E. coli BL21(DE3), pET22b
T1 sequence (P18584 17-497): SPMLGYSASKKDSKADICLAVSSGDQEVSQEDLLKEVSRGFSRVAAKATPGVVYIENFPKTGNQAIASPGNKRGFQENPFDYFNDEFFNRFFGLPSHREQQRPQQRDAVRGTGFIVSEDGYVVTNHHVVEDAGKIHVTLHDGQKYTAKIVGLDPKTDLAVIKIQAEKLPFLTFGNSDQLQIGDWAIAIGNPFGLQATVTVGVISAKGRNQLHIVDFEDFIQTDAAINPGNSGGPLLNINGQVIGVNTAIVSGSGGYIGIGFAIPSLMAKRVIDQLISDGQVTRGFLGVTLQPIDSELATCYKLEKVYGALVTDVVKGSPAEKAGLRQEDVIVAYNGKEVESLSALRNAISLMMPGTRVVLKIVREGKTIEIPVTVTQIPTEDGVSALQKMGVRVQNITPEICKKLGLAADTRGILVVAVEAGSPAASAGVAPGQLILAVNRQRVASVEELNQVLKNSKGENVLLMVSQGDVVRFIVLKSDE
Procedure: The inhibitory activity of compounds 2a–g against CtHtrA was evaluated. […] As these compounds are reportedly covalent inhibitors of serine proteases, a true IC50 is unable to be calculated. Instead, the residual activity of the protease is monitored over time in response to a range of compound concentrations, and an IC50 value is interpolated from a dose–response curve (see Figures S2–S4 and Tables S1 and S2). This IC50 value is then compared to a positive control (JO146 was used for 2a–g, and 2g was used for 6a–h), giving the ‘relative potency’. This is the established method for assessing CtHtrA inhibitory potency. […] This effect may be due to depth restrictions within the S1 subpocket, as kinetic studies on the rates of protease inhibition in HLE were reduced by larger C-3 alkoxy substituents. Chain branching (iso-propyl and sec-butyl substituents) increased the activity, resulting in a 1.4-fold increase for 2e over 2b and a 2.8-fold improvement for 2g over 2c.
CtHtrA was expressed using an procedure adapted from the literature. Recombinant E. coli BL21(DE3) pET22b was grown in LB media containing 100 ug/mL ampicillin to an OD600 of 0.5-0.6 in 5 × 400 mL batches at 37 °C. Isopropyl β-D-1-thioglactopyranoside (1 M, 400 µL, 1 mM final concentration) was added to each flask and incubated at 30 °C with shaking at 150 rpm for an additional 2.5 h. The culture was centrifuged at 4000× g for 15 min at 4 °C, and the cell pellet was harvested and resuspended in lysis buffer (50 mM phosphate, 10 mM imidazole, 500 mM NaCl, 0.1% Triton X-100, 10% glycerol). Lysozyme was added to the suspended cells and was sonicated in 15 cycles of 15 s, with one minute between cycles while maintaining 4 °C, and then centrifuged at 8000× g for 20 min to remove any debris, retaining the supernatant for protein purification.
TALON® metal affinity resin (Takara cat no. 635652, 5 mL) was added to each lysate tube and washed sequentially with lysis buffer (2 × 45 mL) and stringency buffer (4 × 45 mL) and then eluted with elution buffer (2 × 5 mL), allowing incubations at 4 °C for 20 min per wash, and centrifuging at 2500× g and 4 °C between washes to pellet the resin. The eluates were dialyzed in Tris buffer (pH 7.0, 50 mM, 4 L) with magnesium chloride (20 mM) at 4 °C five times over 24 h, with a minimum of three hours per dialysis change. Protein expression and isolation were confirmed with SDS-PAGE Coomassie stained gel, which was examined for the band at the correct size, and a BCA assay to confirm purified protein concentration prior to use.
CtHtrA was added to 25 wells in a black 96-well plate (40–80 µL, 10 µL increments), to which Tris-HCl buffer (50 mM, pH 7.0 with 20 mM MgCl2) was added to bring the total volume to 90 µL for 10 wells and 85 µL for the remaining 15. JO146 (10 µM, 5 µL) was added to 5 wells and JO146 (1 µM, 5 µL) was added to another 5 wells, with DMSO (5 µL) being added to the remaining 5 as a control. The plate was incubated at 37 °C for 10 min before substrate (MCA-ENLHLPLPIIFK-DNP, 10 µL, 1 mg/mL, 50% isopropanol in buffer) was added and analyzed in a TECAN Infinite Pro M200 plate reader with an excitation wavelength of 340 nm and fluorescence measured at 405 nm with four reads per well at 60 s intervals. A minimum volume of CtHtrA granting a fluorescence change of 300 min^−1 was used for subsequent assay.
The determined appropriate volume of CtHtrA in buffer was added to a 96-well non-transparent black plate and diluted to 85 µL with buffer solution. Drug or control (5 µL) at a maximum of 20% DMSO/80% buffer was added to the appropriate well with DMSO controls, and the plate was incubated for 10 min to allow activation by the protein. MCA-ENLHLPLPIIFK-DNP (Mimotopes, Australia, 1 mg/mL, 10 µL) was added and immediately monitored on a TECAN M200 Infinite plate reader at 37 °C every 60 s for 30 min, using the same wavelengths as for the activity evaluation. […]

C. trachomatis = experiment: Chlamydia trachomatis growth inhibition assay in HEp-2 host cells; format: cell-based; conditions: 62.5 µM; for anti-chlamydial activity against C. trachomatis: 30 h post infection, HEp-2 host cells
Procedure: The workflow for the evaluation of chlamydial growth inhibition is described in the supplementary information (Figure S6). Briefly, HEp-2 cells were seeded in a 96-well plate and grown for 24 h; they were then infected with a fixed quantity of C. trachomatis. The infection was propagated for 4 h, and then a mixture of test compound and cycloheximide was added and the plate was incubated for a further 26 h (30 h post infection). The cells were fixed with methanol and then stained with fluorescent antibodies to visualize chlamydial inclusions, and the growth was measured using inclusion counts relative to vehicle controls.
HEp-2 cells were grown until confluent in a T-75 flask with DMEM (containing 10% FCS, gentamycin (0.05 mg/mL), streptomycin (0.1 mg/mL) and glutamine (Sigma-Aldrich Cat No. G7513, 4 mM); they were then harvested with trypsin, and the cell density was determined with a haemocytometer. Cells were diluted to 1 × 10^5 cells/mL, and 200 µL was dispensed to each well in a 96-well plate and then incubated for 24 h at 5% CO2 at 37 °C.
The supernatant was removed, and 100 µL of the respective chlamydia species in media (100,000 IFU/mL) was added, giving an MOI of 0.5. The plate was sealed and centrifuged at 500× g/28 °C for 30 min and then incubated for a further 3.5 h at 37 °C with 5% CO2. The supernatant was removed, and 100 µL of cycloheximide in DMEM (1 µg/mL) was added in addition to 100 µL of drug stock solution to each respective well with DMSO and media negative controls and also azithromycin positive control. The plate was incubated for a further 26 h.
The supernatant was removed, and wells were washed with PBS (2 × 150 µL) and then fixed in methanol for eight minutes. The methanol was removed and washed with additional PBS (2 × 150 µL) and stored at 4 °C with 100 µL PBS per well and then stained and analyzed using fluorescence microscopy, which is outlined below.
Cells in fixed plates were permeabilized with 0.5% Triton X-100 in PBS for 15 min and then blocked with 1% BSA in PBS for 45 min. Anti-HtrA polyclonal antibody (sera) (1:600) (in-house), anti-mouse tubulin (Sigma-Aldrich Cat no. T-5168, 1:3000) and DAPI (125 ng/mL) in PBS were added to each well (70 µL) and then gently shaken at room temperature while shielding it from light for 45 min. The primary antibodies were removed, and the wells were washed with PBS (4 × 150 µL). Secondary antibodies (goat anti-rabbit Alexafluor 488, Thermo Fisher Cat No. A-11008 and goat anti-mouse Alexafluor 568 (Thermo Fisher Cat No. A-11004)) in PBS (70 µL, 1:600 respectively) were added and the wells were gently shaken at room temperature while shielding them from light for 45 min. The antibodies were removed, and the wells were washed with PBS (5 × 150 µL); cells were then stored with PBS (100 µL per well) at 4 °C pending analysis.
Plates were analyzed on an INcell Analyzer 2200 (Cytiva Life Sciences, Marlborough, MA, USA) using both laser autofocus (10%) and software autofocus modes, with ten random images per well covering a minimum of 80% of the well at 10x magnification. Non-morphologically affected inclusions were counted using a macro in ImageJ (v1.54f), and MIC was defined as being one two-fold dilution more concentrated than MICTP (where MICTP is defined as the lowest concentration to produce ≥90% morphologically abnormal inclusions) relative to solvent controls.

[1] = target: T2, Human Leukocyte Elastase (HLE) (Homo sapiens, UniProt P08246); parameters: method as in PMID 3910097; conditions: cited from earlier work
T2 construct: purchased Athens Research and Technology 16-15-051200
T2 sequence (P08246 30-247 limits assumed): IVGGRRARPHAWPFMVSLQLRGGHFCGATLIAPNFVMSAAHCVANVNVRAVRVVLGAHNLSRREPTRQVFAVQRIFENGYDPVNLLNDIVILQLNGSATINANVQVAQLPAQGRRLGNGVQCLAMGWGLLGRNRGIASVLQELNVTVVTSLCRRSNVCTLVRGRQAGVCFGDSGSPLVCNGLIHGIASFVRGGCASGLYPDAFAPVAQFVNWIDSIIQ

[2] = target: T2, Human Leukocyte Elastase (HLE); experiment: HLE protease inhibition assay; format: biochemical; conditions: for IC50: Table S1, variable slope four parameter fit, read-out: IC50 against HLE; for Relative Potency against HLE: [IC50 of JO146]/[IC50 test compound]
Procedure: Elastase was purchased from Athens Research and Technology (Cat No. 16-15-051200). Elastase (100 µg) was dissolved in Tris buffer (100 mM Tris, 20 mM CaCl2, pH 8.1, 3.14 mL), giving a concentration of 1.117 µM, and 25 µL was added to each well containing the respective inhibitor. The plate was incubated at 37 °C for 15 min.
N-Suc-AAA-pNA (Sigma Aldrich, Bayswater, Australia, S4760, 100 µL, 1 mg/mL, […]) was added to each well, and the absorbance was monitored every six minutes at 405 nm. The rate of change of absorbance was used as a comparison to controls to determine the % inhibition of protein in Microsoft Excel^TM (v2402), and these values were exported to GraphPad Prism (v8.0.1) for IC50 calculation.

[3] = Table S2, Batch 1, control JO146
[4] = Table S2, Batch 2, control JO146

SMILES	Relative Selectivity (CtHtrA)	IC50 (CtHtrA; [3]) [µM]	Relative Potency against CtHtrA (CtHtrA; control JO146)	IC50 [2] [µM]	Relative Potency against HLE [2]	also measured
CCC(C)Oc1oc(=O)c2cc(Br)ccc2c1Cl (racemic) [Compound 6f, (±)-7-Bromo-3-sec-butoxy-4-chloro-isocoumarin]						Relative Potency against CtHtrA (CtHtrA; control 2g): 0.057; anti-chlamydial activity against C. trachomatis (C. trachomatis): abolished observable activity
CCC(C)Oc1oc(=O)c2cc(Cl)ccc2c1Cl (racemic) [Compound 6g, (±)-3-sec-Butoxy-4,7-dichloro-isocoumarin]						IC50 (CtHtrA; Table S2, Batch 5, control 2g): 71.8 µM; Relative Potency against CtHtrA (CtHtrA; control 2g): 0.390; anti-chlamydial activity against C. trachomatis (C. trachomatis): did not significantly affect the efficacy of 2g; statistical significance of anti-chlamydial activity (C. trachomatis; relative to solvent controls): statistically significant anti-chlamydial activity
O=c1oc(Cl)c(Cl)c2ccccc12 [3,4-dichloroisocoumarin]						molecular turnover against HLE [1]: 3.1
CCOc1oc(=O)c2ccccc2c1Cl [Compound 2b, 3-Ethoxy-4-chloroisocoumarin]	56.4	19.1	3.73	12.3	0.0664	
CCCOc1oc(=O)c2ccccc2c1Cl [Compound 2c, 3-Propoxy-4-chloroisocoumarin]	6.92	32	2.23	2.53	0.323	
CCCCOc1oc(=O)c2ccccc2c1Cl [Compound 2d, 3-Butoxy-4-chloroisocoumarin]	5.08	45.5	1.57	2.64	0.310	
CC(C)Oc1oc(=O)c2ccccc2c1Cl [Compound 2e, 3-iso-Propoxy-4-chloroisocoumarin]	12.7		5.32	1.95	0.419	fold increase in CtHtrA inhibitory activity (CtHtrA; 2e over 2b): 1.4 fold; IC50 (CtHtrA; [4]): 11.3 µM
CC(C)COc1oc(=O)c2ccccc2c1Cl [Compound 2f, 3-iso-Butoxy-4-chloroisocoumarin]	4.08		1.50	2.22	0.368	IC50 (CtHtrA; [4]): 40 µM
O=c1oc(Cl)cc2ccccc12 [Compound 3-choro-]						molecular turnover against HLE [1]: 15
